Patent publication US20250127772A1, “SPECIFIC TETRADENTATE COPPER CHELATORS FOR THE TREATMENT OF WILSON'S DISEASE” (GUANGDONG UNIVERSITY OF TECHNOLOGY, priority 2023, published 2025)
Values joined by “and” are separate entries in the source; they are usually repeats but may differ in a detail not shown here. Equal values may be shown once. Read-outs that look alike come from different tables or passages of the source.

Key:
serum DEPs = test: Serum differentially expressed proteins (TMT LC-MS/MS) in treated TX mice; format: in vivo, mouse
Method: In order to confirm the positive role of TDMQ20 in the treatment of TX mice, we performed proteomic experiments. Samples from three mice of each group were depicted in Table 1, The samples were treated with TMT (Tandem Mass Tag) and detected by quantitative LC-MS/MS, then the data were analyzed with ProteomeDiscoverer 2.4.1.15 (ThermoFisher Scientific). Confidence proteins were screened according to the criteria of Sequest program score greater than 0 and number of unique peptides greater than or equal to 1, and blank values were removed.
Other differentially expressed proteins (DEPs) were screened at p<0.05 in the WD mouse group compared to the control group. […] Results are reported in Table 3 and 4 for hepatic and serum proteins, respectively.

[1] = system: homozygous toxic-milk mouse model (TX model); format: in vivo; details: for Cu content Brain / Cu content Feces / Cu content Kidney / Cu content Liver / Cu content Serum / Cu content Urine: mean of 6 mice ± SEM
From the text: The selected drug-candidate TDMQ20 has been evaluated on the homozygous toxic-milk mouse model (TX model), a regular murine model of Wilson disease, suitable for evaluation of drug-candidates (for a review, see E. Reed et al., J. Neurochem., 146, 356-373, 2018). TX mice are bearing a naturally occurring point mutation on ATP7B resulting in a methionine changed for a valine, that causes the loss of copper transportation by this protein. C57BL/6 mice have no mutation on ATP7B and were used as control mice in the evaluation of TDMQ20. TX mice were provided by Sun Yat-Sen University (Guangzhou) and C57BL/6 mice by the Guangdong experimental animal center (Guangzhou) and all experiments were performed according to protocols approved by the Welfare Laboratory Animals Committee of the Guangdong University of Technology (approval n° GDUTXS2022083 dated on 3 Aug. 2022), in the framework of the 3 Rs principle.
[…] TX mice (WD) and 8-week-old C57BL/6 mice (Control) were used. TX mice (as WD, TDMQ-L, TDMQ-M, TDMQ-H groups, respectively) received the drug TDMQ20 by intragastric gavage twice a day for 14 consecutive days (at 0, 12.5, 25.0, 50.0 mg/kg in NaCl 0.9%). On the same schedule, C57BL/6 mice (as control group) received NaCl 0.9%. Treatment of WD mice with DPA (200 mg/kg) was used as comparison (DPA group). Six groups of 6 mice were used.
At the end of the treatment period, mice (10-week old) were placed in metabolic cages for 12 h in order to collect urine and feces. At the end of this 12 h-period, mice were anesthetized using 2.5% Avertin diluted in 0.9% NaCl at a dose of […] body weight and sacrificed. Cardiac blood was collected and left at room temperature for 30 minutes before centrifugation at 4° C. at 3000 r/min for 10 minutes to obtain serum samples. During this 30-min period, liver, kidney, brain and serum were also collected. Copper concentrations in urine and feces, serum, liver, kidney and brain were determined by inductively coupled plasma mass spectrometry (ICP-MS). Data analysis was carried out using SPSS Statistics software (version 26). Data are provided as mean values±standard error of the mean (SEM). Statistical analyses were performed using one-way ANOVA for liver, feces and urine, and by non-parametric test for serum, kidney, and brain. Differences with p>0.05 were considered as no significance (ns), * p<0.05, ** p<0.01, and *** p<0.001, n=6. Graph presentations were drawn with Prism GraphPad 8.0.2.

[2] = serum, 25 mg/kg/day, DEP down-regulated in WD
[3] = serum, 25 mg/kg/day, DEP up-regulated in WD
[4] = serum, 50 mg/kg/day, DEP down-regulated in WD
[5] = serum, 50 mg/kg/day, DEP up-regulated in WD
[6] = TX mice, TDMQ20-H 50 mg/kg/day gavage 14 days
[7] = TX mice, TDMQ20-L 12.5 mg/kg/day gavage 14 days
[8] = TX mice, TDMQ20-M 25 mg/kg/day gavage 14 days

CN(C)CCNCCc1ccc2c(Cl)cc(Cl)c(N)c2n1 [TDMQ20]
serum DEPs TDMQ20-H/control ratio (serum DEPs; TDMQ20 50 mg/kg): ~1 | serum DEPs after treatment (serum DEPs; TDMQ20 at 25 or 50 mg/kg): reversed to normal values | TDMQ20-M/ctrl fold change: Alpha-aminoadipic semialdehyde synthase, mitochondrial (Aass) (serum DEPs; [2]): 0.97 | TDMQ20-M/ctrl fold change: Cystatin-C (Cst3) (serum DEPs; [2]): 0.88 | TDMQ20-M/ctrl fold change: Elongation factor 1-delta (Eef1d) (serum DEPs; [2]): 0.85 | TDMQ20-M/ctrl fold change: GrpE protein homolog 1, mitochondrial (Grpel1) (serum DEPs; [2]): 0.95 | TDMQ20-M/ctrl fold change: Transgelin-2 (Tagln2) (serum DEPs; [2]): 0.87 | TDMQ20-M/ctrl fold change: Ig heavy chain V region 1-72 (Ighv1-72) (serum DEPs; [3]): 1.08 | TDMQ20-M/ctrl fold change: Regucalcin (Rgn) (serum DEPs; [3]): 1.06 | TDMQ20-M/ctrl fold change: Ribonuclease 4 (Rnase4) (serum DEPs; [3]): 1.10 | TDMQ20-M/ctrl fold change: Triokinase/FMN cyclase (Tkfc) (serum DEPs; [3]): 1.07 | TDMQ20-M/ctrl fold change: Tropomyosin alpha-3 chain (Tpm3) (serum DEPs; [3]): 1.11 | TDMQ20-H/ctrl fold change: Alpha-aminoadipic semialdehyde synthase, mitochondrial (Aass) (serum DEPs; [4]): 0.93 | TDMQ20-H/ctrl fold change: Cystatin-C (Cst3) (serum DEPs; [4]): 0.92 | TDMQ20-H/ctrl fold change: Elongation factor 1-delta (Eef1d) (serum DEPs; [4]): 0.88 | TDMQ20-H/ctrl fold change: GrpE protein homolog 1, mitochondrial (Grpel1) (serum DEPs; [4]): 1.04 | TDMQ20-H/ctrl fold change: Transgelin-2 (Tagln2) (serum DEPs; [4]): 0.91 | TDMQ20-H/ctrl fold change: Ig heavy chain V region 1-72 (Ighv1-72) (serum DEPs; [5]): 1.15 | TDMQ20-H/ctrl fold change: Regucalcin (Rgn) (serum DEPs; [5]): 0.88 | TDMQ20-H/ctrl fold change: Ribonuclease 4 (Rnase4) (serum DEPs; [5]): 1.03 | TDMQ20-H/ctrl fold change: Triokinase/FMN cyclase (Tkfc) (serum DEPs; [5]): 0.95 | TDMQ20-H/ctrl fold change: Tropomyosin alpha-3 chain (Tpm3) (serum DEPs; [5]): 0.95 | copper content in feces versus untreated WD mice or DPA 200 mg/kg/day ([1]; TX mice, TDMQ20 25 or 50 mg/kg/day): significantly higher | Cu content Brain [1, 6]: 3.5 ± 0.1 mg/kg | Cu content Feces [1, 6]: 142 ± 10 mg/kg | Cu content Kidney [1, 6]: 11.0 ± 1.7 mg/kg | Cu content Liver [1, 6]: 200 ± 14 mg/kg | Cu content Serum [1, 6]: 3.5 ± 0.6 mg/L | Cu content Urine [1, 6]: 0.98 ± 0.05 mg/L | Cu content Brain [1, 7]: 3.2 ± 0.2 mg/kg | Cu content Feces [1, 7]: 88 ± 3 mg/kg | Cu content Kidney [1, 7]: 5.5 ± 0.3 mg/kg | Cu content Liver [1, 7]: 290 ± 4 mg/kg | Cu content Serum [1, 7]: 0.63 ± 0.04 mg/L | Cu content Urine [1, 7]: 0.76 ± 0.13 mg/L | Cu content Brain [1, 8]: 3.3 ± 0.2 mg/kg | Cu content Feces [1, 8]: 129 ± 4 mg/kg | Cu content Kidney [1, 8]: 5.0 ± 0.4 mg/kg | Cu content Liver [1, 8]: 256 mg/kg and 256 ± 8 mg/kg | Cu content Serum [1, 8]: 0.83 ± 0.12 mg/L | Cu content Urine [1, 8]: 0.67 ± 0.10 mg/L | copper concentration in urine, concentration ratio TDMQ20-H/WD ([1]; TX mice, TDMQ20 at 50 mg/kg, factor versus WD mice, 50 mg/kg): 1.8 and 1.75 | concentration of copper in kidney, factor versus WD mice ([1]; TX mice, TDMQ20 at 50 mg/kg, ratio TDMQ20-H/WD): 1.64 | copper concentration in the brain versus WD mice ([1]; mouse, in vivo): no increase of copper concentration
